Read-outs that look alike come from different tables or passages of the source.
Key:
CB1 = CB1 (Homo sapiens, UniProt P21554); details: cited from earlier work
[1] = Two-flavored conditioned aversion test (Example 4); format: in vivo, rat; details: for short-term percentage preference for the primary flavor associated with drug delivery: 15 min; for percentage daily preference for the flavor associated with drug delivery: 17 hr
Description: Another objective was to determine whether the animals were responding negatively to the drug as determined by the use of a two-flavored conditioned aversion test in which the drug was repeatedly paired with one flavor of liquid diet while the vehicle injection was paired with the other flavor. There were ten training trials before the test procedure was done so the rats had sufficient time to make associations between flavors and internal consequences. This test procedure involved giving the rats two bottles, containing the liquid diets flavored with chocolate and strawberry, and determining the individual rat's preference for one or the other of the flavors. A conditioned aversion was established if the rat chose against the flavor associated with the drug injections.
(§1) Each of the rats was assigned to one of five groups. […] These groups were compared to the group with daily injection of vehicle (n=8).
This conditioning procedure was done for 10 exposures before the actual conditioned aversion test was done on day 33. This aversion test was done by allowing each rat exposure for 17 hrs to two bottles, one containing chocolate-flavored and the other containing strawberry-flavored liquid diet. No drugs or vehicles were injected on this day. […] Moreover, the rats were forced to taste both flavors for three or four licks before the diets were made freely available to them so the rats were fully aware that two flavors were present. […] The 17-hour tests allowed repeated association between the internal consequences of the drug and the taste of the drug associated primary flavor.

[2] = cited from earlier work
[3] = mice; cited from earlier work
[4] = 5 and 20 mg doses; human trials; cited from earlier work
[5] = determined from behavioral tests; cited from earlier work
[6] = animal model of temporal lobe epilepsy; cited from earlier work
[7] = Body weight gain with daily or twice-weekly intragastric injection (Example 4); format: in vivo, rat; details: low doses by the intragastric route, 28 days
Description: as §1

[8] = Weight gain or loss after a single dose of 1.25 or 2.5 mg/kg (Example 2); format: in vivo, rat; details: for weight gain or loss: over 10 days
Description: (§2) Food intake and weight measurements were taken daily. […] Animals were assigned into vehicle, 1.25 or 2.5 mg/kg conditions via a counterbalance design.

[9] = cited from earlier work; remark: listed apart in the source
[10] = Daily food intake with administration every 5 days (Example 3); details: 5 mg/kg every 5 days
Description: (§3) Food was available for 17 h each day starting at 16:00 h. Food and water were presented in inverted glass bottles that were attached to the outside of the cage in order to minimize spillage. […] Food intake and body weight measurements were recorded daily.

[11] = Daily food intake after a single dose of 1.25 or 2.5 mg/kg (Example 2); format: in vivo, rat
Description: as §2

[12] = Body weight change with administration every 5 days (Example 3); details: 5 mg/kg every 5 days, p<0.05
Description: as §3

[13] = Food intake after a single intraperitoneal injection in prefed, moderately obese male Lewis rats (Example 1); details: for cumulative food intake: AM-251 5 mg/kg i.p., Ensure Plus
Description: Vanilla-flavoured Ensure Plus (Ross Laboratories, Saint-Laurent, Quebec, Canada) was used as food on account of its palatability, and to reduce the risk of spillage. […] Food and water were presented in inverted glass bottles that attached to the outside of the cage. Animals were habituated to handling and testing procedures 3 weeks prior to testing on liquid diet.
The initial food presented between 1600 and 1700 h (prefeed) was designed to produce partial satiety as previously described in C.
Food bottles were put back on at 1800 h. Food intake measurements were taken daily as well as at 1900, 2000, and 2100 h.

[14] = rats injected daily (intragastric)

CB1, sequence (P21554 whole entry, species assumed): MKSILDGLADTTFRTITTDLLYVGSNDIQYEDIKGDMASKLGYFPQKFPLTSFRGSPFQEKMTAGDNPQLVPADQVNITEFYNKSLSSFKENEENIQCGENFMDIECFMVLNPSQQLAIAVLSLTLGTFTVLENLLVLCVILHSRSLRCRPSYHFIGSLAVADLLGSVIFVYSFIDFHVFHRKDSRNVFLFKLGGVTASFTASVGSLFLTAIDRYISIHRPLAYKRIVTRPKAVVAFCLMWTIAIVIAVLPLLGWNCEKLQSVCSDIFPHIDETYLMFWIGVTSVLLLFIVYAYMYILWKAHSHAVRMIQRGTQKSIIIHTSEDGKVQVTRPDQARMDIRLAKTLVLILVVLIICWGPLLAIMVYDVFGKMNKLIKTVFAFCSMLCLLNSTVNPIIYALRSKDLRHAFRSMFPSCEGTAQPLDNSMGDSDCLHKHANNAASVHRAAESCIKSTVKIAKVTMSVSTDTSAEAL

## Cc1c(C(=O)NN2CCOCC2)nn(-c2ccc(Cl)cc2Cl)c1-c1ccc(I)cc1 [AM 281, N-(Morpholin-1-yl)-1-(2,4-dichlorophenyl)-5-(4-iodophenyl)-4-methyl-1H-pyrazole-3-carboxamide]
CB1
  CB1 antagonist activity and selectivity: potent, CB1 selective antagonists

## CN=C(NS(=O)(=O)c1ccc(Cl)cc1)N1C[C@H](c2ccccc2)C(c2ccc(Cl)cc2)=N1 [SLV-319]
CB1
  CB1 antagonist activity and selectivity: potent, CB1 selective antagonists

## Cc1c(C(=O)NN2CCCCC2)nn(-c2ccc(Cl)cc2Cl)c1-c1ccc(Cl)cc1 [rimonabant, N-(piperidin-1-yl)-5-(4-chlorophenyl)-1-(2,4-dichlorophenyl)-4-methyl-1H-pyrazole-3-carboxamide]
[1]; [14]
  short-term percentage preference for the primary flavor associated with drug delivery: 48%
  percentage daily preference for the flavor associated with drug delivery: 67%
[1]; rats injected twice-weekly (intragastric)
  short-term percentage preference for the primary flavor associated with drug delivery: 44%
[1]; rats injected biweekly (intragastric)
  percentage daily preference for the flavor associated with drug delivery: 50%
[2]; approximately 10 mg/kg daily
  effect of stopping daily doses: significant rebound hyperphagia and a rapid return in body weight
[2]; continued treatment, rats
  time of treatment after which the anorectic effect waned: 5 days
[3]
  damage in response to an inflammatory stimulus vs vehicle-treated controls: significantly more damage
[4]
  most common side effects: nausea, dizziness, arthralgia and diarrhea
[5]
  predicted half-life: 22 h
[6]
  frequency of protracted seizures: significantly higher frequency of protracted seizures
[7]
  effect on body weight gain: significant slowing in weight gain

## Cc1c(C(=O)NN2CCCCC2)nn(-c2ccc(Cl)cc2Cl)c1-c1ccc(I)cc1 [AM-251, N-(piperidin-1-yl)-5-(4-iodophenyl)-1-(2,4-dichlorophenyl)-4-methyl-1H-pyrazole-3-carboxamide]
[8]; 1.25 mg/kg single dose
  weight gain or loss: 2.5 ± 2.0 g
[8]; 2.5 mg/kg single dose
  weight gain or loss: -5.1 ± 2.1 g
[8]; lowest dose, 1.25 mg/kg
  duration of weight loss compared with duration of reduced food intake: the duration of weight loss exceeded the duration of reduced food intake
[9]; 3 mg/kg daily, mouse
  time of repeated daily administration after which changes in food intake were non-significant: 8 days
[9]; approximately 10 mg/kg daily
  effect of stopping daily doses: significant rebound hyperphagia and a rapid return in body weight
[10]
  days on which food intake was significantly reduced: days 1-4, and days 6-15
  time that reductions in food intake continued after the last treatment: five
[10]; vs vehicle, p<0.05
  duration of significant reductions in food intake after the first dose: 4 days
[11]; 1.25 mg/kg or 2.5 mg/kg single dose
  reductions in food intake, dose relation: dose dependent
[11]; 2.5 mg/kg single dose, significant starting the day of administration, p<0.001
  duration of significant reductions in food intake after the day of administration: 4 days
[12]; Newman-Keuls multiple comparison test
  period of significant differences in weight change vs vehicle: day 1 to day 24
[12]; unpaired t-test, last administration on day 11
  period of significant reductions in weight gain: day 1 until day 27
[13]; 5 mg/kg i.p., day of injection
  daily food intake: 36.7 ± 3.3 g
[13]; 5 mg/kg i.p., last day of significant reduction (day before the next drugs were given)
  daily food intake: 47.0 ± 2.5 g
[13]; 5 mg/kg i.p., starting on the day of injection
  duration of significant reduction in daily food intake: 6 days
[13]; 1 h of testing
  cumulative food intake: no intake
[13]; 2 h of testing
  cumulative food intake: 1.3 ± 0.8 g
[13]; 3 h of testing
  cumulative food intake: 3.3 ± 1.4 g
[7]
  effect on body weight gain: significant slowing in weight gain
